What was measured:
recombinant ATX = molecular target: T1, recombinant ATX (Homo sapiens, UniProt Q13822); experiment: FS-3 ATX activity assay; assay type: biochemical
T1 construct: purchased SinoBiological Inc (main data); R&D (additional Km values)
Method: Inhibition of ATX activity by BrP-LPA was determined using the cleavage of the ATX-specific fluorogenic substrate FS-3 (Echelon Biosciences, UT, USA). Assays were conducted in a final volume of 100 μl in the presence of 140 mM NaCl, 5 mM KCl, 1 mM MgCl2 and 50 mM Tris, pH 8.0 with the use of 1 µM FS-3, 2 nM ATX from Echelon and increasing concentrations of BrP-LPA. Reactions were brought up to 100 µl with ddH2O and were then incubated at 37°C in a Tecan Infinite 200 microplate reader (Tecan Trading AG, Switzerland) set to make fluorescence measurements every 1 min for a total period of 30 min. Autotaxin activity was quantified by measuring the rate of increase in fluorescence at 528 nm with excitation at 485 nm. At the end of the measurement, each data point was plotted on a graph of fluorescence versus time. A linear regression was fitted in the linear portion of the graph (3–20 min).
The biochemistry of lyso-PLD was assessed by following the kinetics data using a wide panel of different ATX substrates [FS-3, different LPC species (14:0, 16:0, 18:0, 18:1)], three different recombinant ATX proteins (R&D, Sino-Biological and Echelon) and three different ATX activity assays (FS-3, TOOS, Amplex Red). The ATX activity was measured at different substrate concentrations (typically from 1-1000 μM) in order to examine whether ATX follows Michaelis-Menten kinetics. […] Km and Vmax were evaluated from the rectangular hyperbola curve with the use of GraphPad software.
For in vitro inhibition measurements, BrP-LPA was dissolved in water as a stock solution (4 mM) and appropriate dilutions were made in water. […] The in vitro inhibition of ATX by BrP-LPA was evaluated with three different assays (FS-3, Amplex Red, and TOOS). […]
The inhibition model (competitive, noncompetitive, or mixed type inhibition) was evaluated by graphical analysis with Lineweaver–Burk double reciprocal plots (1/[velocity] versus 1/[substrate]) and Cornish-Bowden plot ([substrate]/[velocity] versus [Inhibitor]). […]

liver tumor = system: liver tumor; design: method as in earlier work; details: in vivo; cited from earlier work
[1] = system: transformed NIH3T3 cells expressing ras and ATX; design: method as in PMID 18454946; details: cited from earlier work
plasma ATX/LysoPLD = molecular target: T2, plasma ATX/LysoPLD (Mus musculus, UniProt Q9R1E6); experiment: Plasma ATX/lysoPLD activity ex vivo (TOOS assay, exogenous LPC); assay type: biochemical; details: for IC50: TOOS
T2 construct: from tissue; host or cells: mouse plasma / whole blood
Method: ATX/LysoPLD activity was assessed based on the amount of choline released from LPC with the use of TOOS (N-ethyl-N-(2-hydoroxy-3-sulfopropyl)-3-methylaniline) reagent. In this assay ATX-mediated LPC-liberated choline is oxidised by choline oxidase to betaine and hydrogen peroxide (H2O2). The latter in the presence of horseradish peroxidase reacts with TOOS and 4-aminoantipyrene (4-AAP) to form a pink quinoneimine dye measured at 555 nm.
Diluted plasma samples (100 fold dilution; final EDTA concentration 0.5 mM) or recombinant ATX protein (2 nM) were incubated with LPC in the presence of 100 mmol/l Tris–HCl/pH 9.0, 500 mmol/l NaCl, 5 mmol/l MgCl2, 5 mmol/l CaCl2, 60 μM CoCl2 and 0.05% Triton X-100 for 3 h at 37°C at a final volume of 100 μl. It should be noted that EDTA was used not only as an anticoagulant but also as an inhibitor of ATX activity ex vivo [46], in order to suppress artificial LPA production during blood withdrawal and plasma preparation; this is because the same samples were used in phospholipid measurements.
The liberated choline was detected by adding 100 μl of a color mix containing 4-AAP and TOOS (0.3 mM), horseradish peroxidase (5.3 UnitmL^−1) and choline oxidase (2 UnitmL^−1). Absorbance was measured at 555 nm and data were analyzed using the statistical software package Prism 4.0 (Graphpad Software Inc, La Jolla, CA, USA). For each sample and control the absorbance was plotted against time and the slope (da/min) for the linear (steady-state) portion of each reaction profile was calculated. Absorbance units were converted to nmol of choline/min/ml by comparison with a choline standard curve or by use of the extinction coefficient for the quinoneimine dye according to the following equation: [drawing 1] Where Vt* is the total volume of reaction in ml (0.2 ml); Vs* is the volume of sample in ml; e is the millimolar extinction coefficient of quinoneimine dye under the assay conditions (e = e = […]); and 1/2: Factor based on the fact that 1 mol of hydrogen peroxide produces 1/2 mol of quinoneimine dye.
For in vitro inhibition measurements, BrP-LPA was dissolved in water as a stock solution (4 mM) and appropriate dilutions were made in water. The inhibition of ATX by BrP-LPA was measured employing 2 nM recombinant ATX, 50 μΜ LPC (14:0, 16:0, 18:0) and 0.01 to 100 μmol/L of BrP-LPA (final concentrations). The in vitro inhibition of ATX by BrP-LPA was evaluated with three different assays (FS-3, Amplex Red, and TOOS). […] BrP-LPA was also tested for its ability to inhibit mouse plasma ATX activity. Diluted mouse plasma was used as the source of ATX and the analysis of inhibition was made with TOOS as the in vitro inhibition assay.
The inhibition model (competitive, noncompetitive, or mixed type inhibition) was evaluated by graphical analysis with Lineweaver–Burk double reciprocal plots (1/[velocity] versus 1/[substrate]) and Cornish-Bowden plot ([substrate]/[velocity] versus [Inhibitor]). These plots were generated by the measurement of ATX activity in the presence of different BrP-LPA concentrations (0–10 μΜ) and increased amounts of 16:0 LPC (100, 200, 400 μΜ). The inhibition constants (Ki) and IC50 values were determined using the mean values obtained from two independent experiments. The relative remaining ATX activity or LPA levels in the presence of the BrP-LPA was expressed as a percentage of the corresponding control value (ATX activity, LPA levels without inhibitor). The IC50 value was determined graphically by plotting the log concentration of BrP-LPA versus relative remaining ATX activity or LPA levels of each test sample using the sigmoid dose–response fitting method (Prism® software). The IC50 (concentration of BrP-LPA sufficient to inhibit ATX activity or diminish LPA levels by 50%) was calculated by the equation f = y0+a/(1+exp(-(x-x0)/b)) given by SigmaPlot 11.0 (Systat Software, Inc., San Jose, CA, USA).

ATX = details: at 10 μM, substrate FS-3; cited from earlier work

% Inhibition at 10 μΜ (recombinant ATX; FS-3 1 μΜ, BrP-LPA 10 μΜ): 95%
IC50 (recombinant ATX; FS-3 assay, [S] 1 μΜ FS-3, Echelon ATX 2 nM, mean±std): 0.4 ± 0.03 µM
Ki (recombinant ATX; FS-3 substrate, Cheng-Prusoff from IC50): 0.3 ± 0.1 µM
% Inhibition at 10 μΜ (plasma ATX/LysoPLD; 14:0 LPC 50 μΜ): 28%
% Inhibition at 10 μΜ (plasma ATX/LysoPLD; 16:0 LPC 50 μΜ): 58%
% Inhibition at 10 μΜ (plasma ATX/LysoPLD; 18:0 LPC 50 μΜ): 70%
IC50 (plasma ATX/LysoPLD; exogenous 14:0 LPC 50 μΜ): > 10 µM
IC50 (plasma ATX/LysoPLD; exogenous 16:0 LPC 50 μΜ): 2.9 ± 0.3 µM
IC50 (plasma ATX/LysoPLD; exogenous 18:0 LPC 50 μΜ): < 0.1 µM
SMILES: CCCCCCCCCCCCCCCC(=O)OC[C@@H](O)CC(Br)P(=O)(O)O (stereo partly drawn) [BrP-LPA, 1-bromo-3(S)-hydroxy-4-(palmitoyloxy)butyl-phosphonate]
liver tumor weight and volume (liver tumor): reduce liver tumor weight and volume in vivo
decrease of chemotaxis [1]: 23%
inhibition of lysophospholipase D activity of ATX (ATX): 94%

Reference: paper PMC3726599, “A Metabolically-Stabilized Phosphonate Analog of Lysophosphatidic Acid Attenuates Collagen-Induced Arthritis” (PLoS ONE, 2013)
